# Source: PubChem BioAssay (NCI)
# Several values for one entry are separate records, joined by “and”; a condition that tells them apart may be missing. Identical values can stand only once.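 Values below derive from 48-hour exposures of cells grown in 96-well plates, with endpoints linearly interpolated between the two concentrations bracketing the appropriate inhibition level. At the GI50, growth is halved. At the TGI there is no net growth.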
# What was measured:
# Experiment in all cases: DTP human tumour cell line panel, 48 h
# [1] = system: CCRF-CEM leukemia
# [2] = system: SN12C renal
# [3] = system: OVCAR-4 ovarian
# [4] = system: DU-145 prostate
# [5] = system: RXF 393 renal
# [6] = system: MCF7 breast
# [7] = system: SK-MEL-5 melanoma
# [8] = system: OVCAR-5 ovarian
# [9] = system: SNB-75 CNS
# [10] = system: BT-549 breast
Structure (SMILES),GI50 [1],TGI [1],GI50 [2],TGI [2],GI50 [3],TGI [3],GI50 [4],TGI [4],GI50 [5],TGI [5],GI50 [6],TGI [6],GI50 [7],TGI [7],GI50 [8],TGI [8],GI50 [9],TGI [9],GI50 [10],TGI [10]
C=CC(=O)N1CC2(CCN(c3nc(OC4CCN(CCCOC)CC4)nc4c(OCC(F)(F)F)c(-c5c(C)ccc6[nH]ncc56)c(C5CC5)cc34)CC2)C1,2.46 µM,8.09 µM,2.36 µM,5.86 µM,4.54 µM,18.5 µM,2.9 µM,9.12 µM,1.8 µM,3.73 µM,1.67 µM,3.37 µM,2.14 µM,4.93 µM,5.31 µM,18 µM,3.83 µM,16.8 µM,2.26 µM,5.71 µM
Cn1c(=O)c2[nH]c(SCc3ccccn3)nc2n(C)c1=S,,> 100 µM,,> 100 µM,,> 100 µM,,> 100 µM,,> 100 µM,,> 100 µM,,> 100 µM,,> 100 µM,,45.2 µM,,> 100 µM
O=c1[nH]ncc(Br)c1Br,2.16 µM,5.35 µM,2.34 µM,6.13 µM,1.71 µM,3.08 µM,3.31 µM,15.3 µM,1.38 µM,2.71 µM,2 µM,11 µM,4.38 µM,15.9 µM,1.69 µM,3.08 µM,3.35 µM,16 µM,3.63 µM,12.2 µM
CS(=O)(=O)c1ccc([C@H]2O[C@@H](CO)C[C@]2(O)c2ccc(S(C)(=O)=O)cc2)cc1,> 100 µM,> 100 µM,> 100 µM,> 100 µM,> 100 µM,> 100 µM,> 100 µM,> 100 µM,> 100 µM,> 100 µM,> 100 µM,> 100 µM,> 100 µM,> 100 µM,> 100 µM,> 100 µM,> 100 µM,> 100 µM,> 100 µM,> 100 µM
Nc1nc(Cl)c2ncn(Cc3ccc(C45CC6CC(CC(C6)C4)C5)c(O)c3)c2n1,0.809 µM,10.6 µM,2.95 µM,13.4 µM,0.991 µM,3.82 µM,3.14 µM,11.8 µM,1.87 µM,6.56 µM,3.14 µM,13 µM,0.558 µM,11 µM,6.13 µM,20.6 µM,3.88 µM,28.9 µM,6.82 µM,25.2 µM
CC[C@@H]1C(=O)N(C)c2cnc(Nc3ccc(C(=O)NC4CCN(C)CC4)cc3OC)nc2N1C1CCCC1,0.00236 µM and < 0.01 µM,2.9 µM and 1.26 µM,0.0233 µM and 0.039 µM,4.32 µM and 14.1 µM,0.303 µM and 0.163 µM,9.87 µM and 4.4 µM,0.00363 µM,> 10 µM,0.0047 µM and < 0.01 µM,0.627 µM and 0.576 µM,0.00331 µM and < 0.01 µM,> 4.96 µM and 5.55 µM,0.00861 µM and 0.0123 µM,0.205 µM and 0.274 µM,0.00408 µM and < 0.01 µM,> 10 µM and 11.8 µM,0.00411 µM and < 0.0112 µM,0.233 µM and 0.17 µM,0.0948 µM and 0.0414 µM,> 10 µM and 12.2 µM
CC(=O)OC[C@]1(C)C=C2C(=O)[C@](C)(O)C3(CC3)C(C)=C2[C@H]1O,0.206 µM,> 100 µM,0.251 µM,6.21 µM,0.094 µM,0.649 µM,0.036 µM,,0.0612 µM,0.199 µM,0.0273 µM,15.5 µM,0.137 µM,0.3 µM,0.0666 µM,0.506 µM,0.152 µM,0.35 µM,0.148 µM,0.556 µM
Oc1ccc2ccccc2c1N=Nc1nccs1,0.0932 µM,,1.77 µM,44 µM,0.457 µM,16.8 µM,2.17 µM,16 µM,3.33 µM,> 59.2 µM,0.471 µM,16.7 µM,3.55 µM,15.6 µM,5.61 µM,25.6 µM,1.46 µM,24.7 µM,4.75 µM,32.3 µM
CC(=O)OCCN1c2ccccc2Sc2cnccc21,,> 10 µM,,> 10 µM,,> 10 µM,,> 10 µM,,> 10 µM,,> 10 µM,,> 10 µM,,> 10 µM,,> 10 µM,,> 10 µM
CCC(C)c1c(Cl)nc(Cl)nc1Cl (stereo not drawn),,> 100 µM,,85.4 µM,,46.2 µM,,30.4 µM,,20.7 µM,,22 µM,,13 µM,,33.2 µM,,26.8 µM,,4.65 µM
N#Cc1ccc(NC(=O)Nc2ccc(Oc3ccc(NC(=O)Nc4ccc(C#N)cc4)cc3)cc2)cc1,22.1 µM,> 100 µM,25.3 µM,> 100 µM,5.65 µM,> 100 µM,31.2 µM,> 100 µM,15.3 µM,> 100 µM,3.71 µM,> 100 µM,20.2 µM,> 100 µM,26.1 µM,> 100 µM,4.14 µM,24.4 µM,3.48 µM,24.2 µM
